Data on one compound can be found in PMC10144994, “Bioactive Metabolite from Endophytic Aspergillus versicolor SB5 with Anti-Acetylcholinesterase, Anti-Inflammatory and Antioxidant Activities: In Vitro and In Silico Studies” (Microorganisms, 2023).

For the assay, the target named is T1, LOX-1 (lipoxygenase from Glycine max, type I-B) (Glycine max, UniProt P08170).
T1 construct: gene LOX1.1
T1 sequence (P08170 1-839): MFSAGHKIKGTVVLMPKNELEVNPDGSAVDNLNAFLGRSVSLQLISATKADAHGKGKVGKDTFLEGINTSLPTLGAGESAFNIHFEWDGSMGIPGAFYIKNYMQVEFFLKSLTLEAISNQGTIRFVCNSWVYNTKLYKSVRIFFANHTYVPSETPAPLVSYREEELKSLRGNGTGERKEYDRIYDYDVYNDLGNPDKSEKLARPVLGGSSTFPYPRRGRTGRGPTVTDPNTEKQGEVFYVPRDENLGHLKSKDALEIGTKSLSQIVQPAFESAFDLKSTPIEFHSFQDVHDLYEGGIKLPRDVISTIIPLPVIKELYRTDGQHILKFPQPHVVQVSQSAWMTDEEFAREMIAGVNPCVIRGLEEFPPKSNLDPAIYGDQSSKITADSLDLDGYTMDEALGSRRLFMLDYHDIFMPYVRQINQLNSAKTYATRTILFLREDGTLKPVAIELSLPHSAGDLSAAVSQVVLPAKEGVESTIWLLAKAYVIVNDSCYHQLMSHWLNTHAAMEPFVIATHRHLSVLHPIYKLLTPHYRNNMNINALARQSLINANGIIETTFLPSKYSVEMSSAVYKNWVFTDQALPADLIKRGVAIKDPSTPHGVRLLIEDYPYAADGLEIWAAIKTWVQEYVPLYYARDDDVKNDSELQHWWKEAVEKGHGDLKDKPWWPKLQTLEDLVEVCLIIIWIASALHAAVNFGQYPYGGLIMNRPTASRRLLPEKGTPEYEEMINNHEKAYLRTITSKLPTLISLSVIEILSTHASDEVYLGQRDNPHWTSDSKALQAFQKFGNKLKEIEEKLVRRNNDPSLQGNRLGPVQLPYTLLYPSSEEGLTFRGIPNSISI
The assay can be described thus: soybean LOX, linoleic acid substrate, absorbance at […] nm. Format: biochemical.

Each structure is given as a SMILES string.

For orientation: IC50 means the concentration that gives 50% inhibition. `COc1cc(O)c2c(c1)C(=O)c1cc(C)cc(O)c1C2=O` [C1, 1,8-dihydroxy-3-methoxy-6-methylanthracene-9,10-dione] gave an IC50 of 61.7 µM.
